In paper doi:10.1101/2021.04.12.439490v1 (biorxiv, 2021):

Molecular target: full-length WDR5, C-terminal NanoLuc fusion (WDR5-C) (Homo sapiens, UniProt P61964)
Assay: NanoBRET tracer titration
Format: cell-based

Kd: ~1 µM
SMILES: CN1CCN(c2ccc(-c3ccc(C(=O)NCCCOCCOCCOCCCNC(=O)CCc4ccc5n4[B-](F)(F)[N+]4=C(c6ccc[nH]6)C=CC4=C5)cc3)cc2NC(=O)c2c[nH]c(=O)cc2C(F)(F)F)CC1 [19c]
